Laboratory results taken from US7115750B1, “Melanin concentrating hormone antagonist” (Takeda Pharmaceutical Company Limited, priority 1999, dated 2006).
Structures can show the parent of a compound that is named as a salt.

melting point	Structure (SMILES)
222 to 225 °C (dec.)	Cl.O=C(Nc1ccc(C(=O)C2CCCNC2)cc1)c1ccc(-c2ccc(Cl)cc2)cc1 (stereo not drawn)
195 °C (dec.)	Cl.O=C(Nc1ccc(C(O)C2CCCNC2)cc1)c1ccc(-c2ccc(Cl)cc2)cc1 (stereo not drawn)
218 to 220 °C (dec.)	Cl.O=C(Nc1ccc(CC2CCCNC2)cc1)c1ccc(-c2ccccc2)cc1 (stereo not drawn)
205 °C (dec.)	Cl.O=C(Nc1ccc(CC2CCCNC2)cc1)c1ccc(-c2ccc(F)cc2)cc1 (stereo not drawn)
200 °C (dec.)	Cl.O=C(Nc1ccc(CC2CCCNC2)cc1)c1ccc(-c2ccc(Cl)cc2)cc1 (stereo not drawn)
220 °C (dec.)	CN(C)CC1CCc2cc(NC(=O)c3ccc(-c4ccc(-c5ccccc5)cc4)cc3)ccc2C1.Cl (stereo not drawn)
168 to 170 °C	CN(C)CC1CCc2cc(NS(=O)(=O)c3ccc(-c4ccccc4)cc3)ccc2C1.Cl (stereo not drawn)
201 to 203 °C	CN(C(=O)c1ccc(-c2ccc(F)cc2)cc1)c1ccc2c(c1)CCC(CN1CCCC1)=C2 (as salt: hydrochloride) [Example 226, 4′-Fluoro-N-methyl-N-[6-(1-pyrrolidinylmethyl)-7,8-dihydro-2-naphthalenyl][1,1′-biphenyl]-4-carboxamide Hydrochloride]
187 to 189 °C	CN(C)CC1=Cc2ccc(NC(=O)c3ccc(-c4ccccc4)cc3)cc2C1 (hydrate or solvate) [Example 244, N-[2-[(Dimethylamino)methyl]-1H-inden-6-yl][1,1′-biphenyl]-4-carboxamide]
193 to 196 °C	CN(C)CC1CCc2cc(NC(=O)c3ccc(C(=O)c4ccccc4)cc3)ccc2C1 (stereo not drawn) [Example 2, 4-Benzoyl-N-[2-(N,N-dimethylamino)methyl-6-tetralinyl]benzamide]
235 to 240 °C	CN(C)CC1CCc2cc(NC(=O)c3ccc(N4C(=O)c5ccccc5C4=O)cc3)ccc2C1 (stereo not drawn) [Example 3, N-[2-(N,N-Dimethylamino)methyl-6-tetralinyl]-4-(1,3-dioxo-1,3-dihydro-2H-isoindol-2-yl) benzamide]
135 to 136 °C	CN(C)CC1CCc2cc(NC(=O)c3ccc(OCc4ccccc4)cc3)ccc2C1 (stereo not drawn) [Example 5, 4-(Benzyloxy)-N-[2-(N,N-dimethylamino)methyl-6-tetralinyl]benzamide]
224 to 226 °C	CN(C)CC1CCc2cc(NC(=O)c3ccc4c(c3)C(=O)c3ccccc3-4)ccc2C1 (stereo not drawn) [Example 6, N-[2-(N,N-Dimethylamino)methyl-6-tetralinyl]-9-oxo-9H-fluoren-2-carboxamide]
222 to 223 °C (dec.)	CN(C)CC1CCc2cc(NC(=O)c3ccc4c(c3)S(=O)(=O)c3ccccc3C4=O)ccc2C1 (stereo not drawn) [Example 7, N-[2-(N,N-Dimethylamino)methyl-6-tetralinyl]-9,10,10-trioxo-9,10-dihydro-101^6-thioxanthene-3-carboxamide]
216 to 217 °C (dec.)	CN(C)CC1CCc2cc(NC(=O)c3ccc(NC(=O)Nc4ccccc4)cc3)ccc2C1 (stereo not drawn) [Example 8, (4-Anilinocarbonyl)amino-N-[2-(N,N-dimethylamino)methyl-6-tetralinyl]benzamide]
137 to 139 °C	CN(C)CC1CCc2cc(NC(=O)c3ccc(Oc4ccccc4)cc3)ccc2C1 (stereo not drawn) [Example 9, N-[2-(N,N-Dimethylamino)methyl-6-tetralinyl]-4-phenoxy benzamide]
238 to 240 °C (dec.)	CN(C)CC1CCc2cc(NC(=O)c3ccc(C(=O)Nc4ccccc4)cc3)ccc2C1 (stereo not drawn) [Example 10, N^1-[2-(N,N-Dimethylamino)methyl-6-tetralinyl]-N^4-phenyl terephthalamide]
137 to 138 °C	CCc1ccc(-c2ccc(C(=O)Nc3ccc4c(c3)CCC(CN(C)C)C4)cc2)cc1 (stereo not drawn) [Example 11, (4′-Ethylbiphenyl-4-yl)-N-[2-(N,N-dimethylamino)methyl-6-tetralinyl]carboxamide]
187 to 189 °C	CN(C)CC1CCc2cc(NC(=O)c3ccc(-c4ccc(Cl)cc4)cc3)ccc2C1 (stereo not drawn) [Example 12, (4′-Chlorobiphenyl-4-yl)-N-[2-(N,N-dimethylamino)methyl-6-tetralinyl]carboxamide]
174 to 176 °C	CN(C)CC1CCc2cc(NC(=O)c3ccc(-c4ccc5c(c4)OCO5)cc3)ccc2C1 (stereo not drawn) [Example 14]

melting point	Structure (SMILES)
143 to 145 °C	CN(C)CC1CCc2cc(NC(=O)c3ccc(-c4ccc(Cl)c(Cl)c4)cc3)ccc2C1 (stereo not drawn) [Example 16, 3′,4′-Dichloro-N-[6-[(N,N-dimethylamino)methyl]-5,6,7,8-tetrahydro-2-naphthalenyl][1,1′-biphenyl]-4-carboxamide]
246 to 248 °C	CN(C)CC1CCc2cc(NC(=O)c3ccc(-c4ccc([O-])cc4)cc3)ccc2C1.[Na+] (stereo not drawn) [Example 19, Sodium salt of N-[6-[(N,N-dimethylamino)methyl]-5,6,7,8-tetrahydro-2-naphthalenyl]-4′-oxy[1,1′-biphenyl]-4-carboxamide]
130 to 132 °C	CN(C)CC1CCc2cc(NC(=O)c3ccc(-c4ccc(C=O)cc4)cc3)ccc2C1 (stereo not drawn) [Example 20, N-[6-[(N,N-Dimethylamino)methyl]-5,6,7,8-tetrahydro-2-naphthalenyl]-4′-formyl[1,1′-biphenyl]-4-carboxamide]
138 to 139 °C	CN(C)CC1CCc2cc(NC(=O)c3ccc(-c4ccc(CO)cc4)cc3)ccc2C1 (stereo not drawn) [Example 21, N-[6-[(N,N-Dimethylamino)methyl]-5,6,7,8-tetrahydro-2-naphthalenyl]-4′-(hydroxymethyl)[1,1′-biphenyl]-4-carboxamide]
186 to 188 °C	CCCc1ccc(-c2ccc(C(=O)Nc3ccc4c(c3)CCC(CN(C)C)C4)cc2)cc1 (stereo not drawn) [Example 22, N-[6-[(N,N-Dimethylamino)methyl]-5,6,7,8-tetrahydro-2-naphthalenyl]-4′-propyl[1,1′-biphenyl]-4-carboxamide]
140 to 142 °C	Cc1cc(Br)ccc1C(=O)Nc1ccc2c(c1)CCC(CN(C)C)C2 (stereo not drawn) [Example 24, 4-Bromo-N-[6-[(N,N-dimethylamino)methyl]-5,6,7,8-tetrahydro-2-naphthalenyl]-2-methylbenzamide]
154 to 155 °C	Cc1cc(C(=O)Nc2ccc3c(c2)CCC(CN(C)C)C3)ccc1Br (stereo not drawn) [Example 25, 4-Bromo-N-[6[(N,N-dimethylamino)methyl]-5,6,7,8-tetrahydro-2-naphthalenyl]-3-methylbenzamide]
177 to 179 °C	CN(C)CC1CCc2cc(NC(=O)c3ccc(-c4ccc(Cl)cc4)cc3Cl)ccc2C1 (stereo not drawn) [Example 26, 3,4′-Dichloro-N-[6-[(N,N-dimethylamino)methyl]-5,6,7,8-tetrahydro-2-naphthalenyl][1,1′-biphenyl]-4-carboxamide]
163 to 165 °C	Cc1cc(-c2ccc(Cl)cc2)ccc1C(=O)Nc1ccc2c(c1)CCC(CN(C)C)C2 (stereo not drawn) [Example 27, 4′-Chloro-N-[6-[(N,N-dimethylamino)methyl]-5,6,7,8-tetrahydro-2-naphthalenyl]-3-methyl[1,1′-biphenyl]-4-carboxamide]
193 to 195 °C	Cc1cc(C(=O)Nc2ccc3c(c2)CCC(CN(C)C)C3)ccc1-c1ccc(Cl)cc1 (stereo not drawn) [Example 28, 4′-Chloro-N-[6-[(N,N-dimethylamino)methyl]-5,6,7,8-tetrahydro-2-naphthalenyl]-2-methyl[1,1′-biphenyl]-4-carboxamide]
205 to 206 °C	CN(C)CC1CCc2cc(NC(=O)c3ccc(-c4ccc(C(F)(F)F)cc4)cc3)ccc2C1 (stereo not drawn) [Example 29, N-[6-[(N,N-Dimethylamino)methyl]-5,6,7,8-tetrahydro-2-naphthalenyl]-4′-(trifluoromethyl)[1,1-biphenyl]-4-carboxamide]
177 to 178 °C	CN(C)CC1CCc2cc(NC(=O)c3ccc(-c4cccnc4)cc3)ccc2C1 (stereo not drawn) [Example 30, N-[6-[(N,N-Dimethylamino)methyl]-5,6,7,8-tetrahydro-2-naphthalenyl]-4-(3-pyridinyl)benzamide]
235 to 237 °C	CN(C)CC1CCc2cc(NC(=O)c3ccc(-c4ccc(NC(=O)C(F)(F)F)cc4)cc3)ccc2C1 (stereo not drawn) [Example 31, N-[6-[(N,N-Dimethylamino)methyl]-5,6,7,8-tetrahydro-2-naphthalenyl]-4′-[(trifluoroacetyl)amino][1,1′-biphenyl]-4-carboxamide]
185 to 187 °C	CN(C)CC1CCc2cc(NC(=O)c3ccc(-c4ccc(C5=NC(C)(C)CO5)cc4)cc3)ccc2C1 (stereo not drawn) [Example 32, N-[6-[(N,N-Dimethylamino)methyl]-5,6,7,8-tetrahydro-2-naphthalenyl]-4′-(4,4-dimethyl-4,5-dihydro-1,3-oxazole 2-yl)[1,1′-biphenyl]-4-carboxamide]
148 to 150 °C	CN(C)CC1CCc2cc(NC(=O)c3ccc(-c4ccc(N)cc4)cc3)ccc2C1 (stereo not drawn) [Example 33, 4′-Amino-N-[6-[(N,N-dimethylamino)methyl]-5,6,7,8-tetrahydro-2-naphthalenyl][1,1′-biphenyl]-4-carboxamide]
165 to 166 °C	CN(C)CC1CCc2cc(NC(=O)c3ccc(-c4cccs4)cc3)ccc2C1 (stereo not drawn) [Example 34, N-[6-[(N,N-Dimethylamino)methyl]-5,6,7,8-tetrahydro-2-naphthalenyl]-4-(2-thienyl) benzamide]
156 to 158 °C	CCOC(=O)c1ccc(-c2ccc(C(=O)Nc3ccc4c(c3)CCC(CN(C)C)C4)cc2)cc1 (stereo not drawn) [Example 35, Ethyl 4′-[[[6-[(N,N-dimethylamino)methyl]-5,6,7,8-tetrahydro-2-naphthalenyl]amino]carbonyl][1,1′-biphenyl]-4-carboxylate]
178 to 180 °C	CSc1ccc(-c2ccc(C(=O)Nc3ccc4c(c3)CCC(CN(C)C)C4)cc2)cc1 (stereo not drawn) [Example 36, N-[6-[(N,N-Dimethylamino)methyl]-5,6,7,8-tetrahydro-2-naphthalenyl]-4′-(methylsulfanyl)[1,1′-biphenyl]-4-carboxamide]
212 to 213 °C	CN(C)CC1CCc2cc(NC(=O)c3ccc(-c4ccc(N(C)C)cc4)cc3)ccc2C1 (stereo not drawn) [Example 37, 4′-(N,N-Dimethylamino)-N-[6-[(N,N-dimethylamino)methyl]-5,6,7,8-tetrahydro-2-naphthalenyl][1,1′-biphenyl)-4-carboxamide]
